Measurements taken from patent publication US6878701B2, “Potassium channel blocking agents” (Neurosearch A/S, priority 1999, dated 2005).

Target: T1, small-conductance Ca2+-activated K+ channels (SK channels, isoform 2) (Rattus norvegicus, UniProt P70604)
T1 construct: expressed in transfected cells; host or cells: HEK293
Test: Whole-cell patch-clamp recording of SK channel current in stably transfected HEK293 cells
Format: cell-based
Settings: rat SK2 stably expressed in HEK293 cells, room temperature, IC50 = Koff/Kon from kinetics of the block, read-out: biological activity determined as IC50
Experimental: In this experiment. small-conductance Ca^2+-activated K^+ channels (SK channels, isoform 2) cloned from a rat cDNA library were stably expressed in HEK293 cells using standard procedures. The ionic current through the channels was recorded in the whole-cell mode of the patch-clamp technique.
Cells plated on coverstips are placed in a 15 μl perfusion chamber (flowrate ˜1 ml/min), mounted on a IMT-2 microscope equipped with Nomarski or Hoffmann optics. The microscopes are placed on vibration-free tables in grounded Faraday cages.
All experiments are performed at room temperature (20-22° C.). […] Data are stored directly on the harddisk and analysed by the IGOR software according to the manufacturer's instructions.
The whole-cell configuration of the patch clamp technique is applied. […] Cell capacitance is electronically compensated and the resistance between the pipette and the cell interior (the series resistance, Rs) is measured and compensated for. […]
In the experiments where the effect of channel activators is quantified (test 475), the intracellular (pipette) solution has the following composition (concentration in mM):
The calculated free concentration of Ca^2+ in this solution is 100 nM, and that of Mg^2+ is 1 mM. In these experiments, the concentration of CaCl2 is 7.6 mM and that of MgCl2 is 1.2 mM to give calculated free concentrations of 300 nM and 1 mM, respectively. […]

IC50: < 1000 nM
Compound: CN1CCN(C)c2nc(c3ccccc3n2)NCC2CCCC(CNc3nc1nc1ccccc31)C2 [Compound 2, 20,23-dimethyl-2,10,18,20,23,25,32,33-octaazahexacyclo [22.7.1.1^4.8.1^11,19.0^12,17.0^26,31] tetratriaconta-1(32).11,13,15,17,19(33),24,26,28,30-decaene]
